# Source: publication PMC8779995, “Metabolic Soft Spot and Pharmacokinetics: Functionalization of C-3 Position of an Eph–Ephrin Antagonist Featuring a Bile Acid Core as an Effective Strategy to Obtain Oral Bioavailability in Mice” (Pharmaceuticals, 2021)
# Values joined by “and” are separate entries in the source; they are usually repeats but may differ in a detail not shown here. Equal values may be shown once. Read-outs that look alike come from different tables or passages of the source.
# Experiments:
# [1] = design: method as in PMID 31891876, PMID 32927068; settings: reference substrates; cited from earlier work
# [2] = Phase I metabolic stability in mouse liver microsomes (MLM) with NADPH-generating system; assay type: in vitro ADME; settings: for in vitro half-life (t1/2), phase I metabolism / half-life at 1 µM: NADPH-generating system; for half-life at 1 µM: pH 7.4, MLM, read-out: in vitro half-life (t1/2), phase I metabolism
# [3] = Phase II glucuronidation stability in MLM (+UDPGA); assay type: in vitro ADME, mouse; settings: 1 μM
# Method: Phase I metabolic stability assays on UniPR compounds were carried out in the presence of MLM (final protein concentration: 1 mg/mL) following published procedures. MLM were also employed in phase II glucuronidation assays employing UDPGA as activating co-factor.
# (§1) S.1 In vitro phase I liver metabolism in MLM
# (§2) In phase I metabolic stability assays, samples were prepared in 100 mM phosphate buffered saline (PBS), pH 7.4, containing a NADPH-generating system (5 mM MgCl2, 10 mM glucose-6-phosphate, 2 mM NADP+, 1.5 U/mL of glucose-6-phosphate dehydrogenase) and 1 mg/mL mouse liver […]
# solutions in DMSO were added to start the reaction. Final DMSO percentage in samples was kept at 1%. At fixed time points (t = 0, 15, 30, 45, 60 min), single aliquots of reaction mixture were withdrawn, processed with two vol. of ACN containing 100 nM UniPR126, centrifuged (16000 g, 10 min, 4 °C) and the supernatant was directly injected in the HPLC-ESI-MS/MS system. […]
# (§3) Within-run accuracy and precision were checked employing QC samples representative of the whole calibration range (HQC = 800 nmol/l; MQC = 400 nmol/l; LQC = 5 nmol/l) with n = 3 replicates at each QC concentration level. […] The acceptance criteria for accuracy were to get back-calculated concentrations ± 15% of the nominal ones, except for the LLOQ, which had to be ± 20%. The acceptance criteria for precision, expressed as relative standard
# [4] = Phase II sulfonation stability in mouse liver S9 fraction (+PAPS); assay type: in vitro ADME; settings: mouse liver S9, 1 μM
# Method: (§4) Phase II sulfonation assays were carried out in the presence of HLS9 or MLS9 fractions, as previously reported. The co-factor PAPS was incubated together with MgCl2, DTT, and UniPR compounds. The detailed experimental protocols for in vitro phase I and II metabolic stability assays are reported in Sections S.1–S.3 of the Supplementary Material. […] A 100 µL aliquot of the reaction mixture was extracted at the beginning of the experiment (t = 0) and at t = 180 min and processed as for the metabolic stability samples.
# as §1, §2
# solutions in DMSO were added to start the reaction. Final DMSO percentage in samples was kept at 1%. […]
# as §3
# [5] = Phase II sulfonation stability in human liver S9 fraction (+PAPS); assay type: in vitro ADME; settings: pH 7.4, human liver S9, 1 μM, read-out: in vitro t1/2, sulfonation
# Method: as §4
# In vitro half-life (t1/2) in MLM and MLS9 fraction was calculated from the slope (k, Equation (1)) of the linear regression model obtained by fitting the log percentage UniPR compound remaining vs. time. in vitro t1/2 = −0.693/k (1) […]
# S.1 In vitro phase I liver metabolism in MLM […]
# as §3
# [6] = In vivo pharmacokinetics in mice after single oral dose, plasma levels by HPLC-MS/MS; settings: 30 mg/kg p.o.; for AUC(0-t): non-compartmental analysis
# Method: Male mice (breed: C57BL/6J) were supplied by Charles River Labs, Milan, Italy. Mice were submitted to 12 h light-dark cycles under standard temperature and humidity conditions, with free access to water and chow. All experimental procedures were carried out following the European Community Council Directive 2010/63/UE, Italian regulations (DL 26/2014), and the ethical committee guidelines for animal research. […] Blood aliquots were withdrawn by tail puncture into heparinized tubes, centrifuged to collect plasma (2000× g, 10 min, 4 °C), and stored at −80 °C until analysis by HPLC-ESI-MS/MS. Details on the employed bioanalytical method and HPLC-ESI-MS/MS analytical conditions are given in Section S.4 of the Supplementary Material.
# Microsoft Excel 365 (Microsoft Corp., Redmond, WA, USA) was employed for data analysis. GraphPad Prism v. 6.01 (GraphPad Software Inc., La Jolla, CA, USA) was employed for plotting graphs. The freeware software PCModFit V.6.7 (Add-on for Microsoft Excel) was employed for AUC calculations by non-compartmental analysis (NCA). […]
# Calibration standards (CS, concentration range: 1000-2 nmol/L) were prepared by spiking blank […]
# = 1%). Specificity of the method was checked comparing HPLC-MS/MS chromatograms of blank […]
# Within-run accuracy and precision were checked employing QC samples representative of the whole calibration range (HQC = 800 nmol/l; MQC = 400 nmol/l; LQC = 5 nmol/l) with n = 3 replicates at each QC concentration level. Between-run accuracy and precision were checked employing QC samples at n=3 concentration levels in n = 3 analytical runs over three days. The acceptance criteria for accuracy were to get back-calculated concentrations ± 15% of the nominal ones, except for the LLOQ, which had to be ± 20%. The acceptance criteria for precision, expressed as relative standard
# [7] = mice, cited from earlier work
# [8] = n-octanol/buffer pH 7.4, cited from earlier work
# [9] = cited from earlier work
# [10] = 24 h incubation at 37 °C; cited from earlier work
# [11] = cited from earlier work; remark: listed apart in the source
# EphA2-Fc = EphA2-Fc (Mus musculus, UniProt Q03145); assay: Surface plasmon resonance (SPR) binding to sensorchip-immobilized EphA2-Fc
# Sequence of EphA2-Fc (Q03145 26-538): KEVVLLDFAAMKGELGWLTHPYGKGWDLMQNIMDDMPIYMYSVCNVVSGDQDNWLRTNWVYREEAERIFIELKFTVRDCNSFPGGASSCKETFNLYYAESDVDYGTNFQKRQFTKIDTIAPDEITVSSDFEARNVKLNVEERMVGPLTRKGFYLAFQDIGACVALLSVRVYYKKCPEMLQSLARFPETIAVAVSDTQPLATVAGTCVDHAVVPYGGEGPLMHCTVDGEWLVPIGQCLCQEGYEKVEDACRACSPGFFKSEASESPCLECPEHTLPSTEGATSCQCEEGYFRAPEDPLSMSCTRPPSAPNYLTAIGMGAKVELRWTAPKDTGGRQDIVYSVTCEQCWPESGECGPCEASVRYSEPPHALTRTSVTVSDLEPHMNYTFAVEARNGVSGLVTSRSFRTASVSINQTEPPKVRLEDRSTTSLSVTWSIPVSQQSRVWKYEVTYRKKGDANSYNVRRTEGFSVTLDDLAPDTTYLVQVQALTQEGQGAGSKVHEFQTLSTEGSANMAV
# Method: SPR measurements were performed on a BIAcore X100 instrument (GE-Healthcare, Milwaukee, WI, USA), using research-grade CM4 carboxyl-methyl-dextran-coated sensorchips (GE-Healthcare). SPR was exploited to measure changes in refractive index caused by the binding of UniPR500 to surface-immobilized EphA2. […] Binding parameters were calculated by the non-linear curve fitting software package BIA evaluation 3.2 using a single site model with correction for mass transfer. The dissociation constant (Kd) was either derived from the dissociation rate (koff)/association rate (kon) ratio (kinetics) or by steady-state analysis (being fitted with the proper form of Scatchard’s equation for the plot of the bound RU at equilibrium vs. the ligand concentration in solution).
# [12] = Lipophilicity, distribution coefficient n-octanol/buffer pH 7.4; assay type: physicochemical
# [13] = male, C57BL/6J, mouse, plasma, po
smiles,measurement,setting,value
O=C(O)Cc1ccccc1Nc1c(Cl)cccc1Cl [diclofenac],t1/2 of known phase I CYP substrates,[1],~6 min
"C[C@H](CCC(=O)N[C@H](CC(=O)O)Cc1c[nH]c2ccccc12)[C@H]1CC[C@H]2[C@@H]3CC[C@@H]4C[C@H](O)CC[C@]4(C)[C@H]3CC[C@]12C [UniPR129, N-(3α-hydroxy-5β-cholan-24-oyl)-L-β-homotryptophan]",change in concentration in the absence of the NADPH-generating system,[2]; MLM control without NADPH-generating system,No decrease
same,"in vitro half-life (t1/2), phase I metabolism","[2]; MLM, 1 μM",17 min
same,classification of in vitro phase I intrinsic clearance,[2]; classification bands of ref 19,high clearance compound
same,half-life at 1 µM,"[2]; mouse, liver microsomes, 1 μM",16.8 min
same,microsomal CLint at 1 µM,"[2]; mouse, liver microsomes, pH 7.4, MLM, 1 μM, estimate from t1/2, read-out: phase I intrinsic clearance (CL'int)",41.4 µL/min/mg
same,"percentage of intact compound at t = 60 min, glucuronidation",[3],85.7 ± 2.7%
same,"percentage remaining at t = 60 min, sulfonation",[4],86.2 ± 5.3%
same,half-life at 1 µM,[5],61.1 ± 4.3 min
same,AUC(0-t),[6]; [13],0.0406 µM·h
same,plasma levels after oral administration,[7]; 30 mg/kg oral dose,low nanomolar range
same,Tmax,[7]; 30 mg/kg p.o.,60 min
same,Cmax,"[7]; 30 mg/kg p.o., read-out: Cmax in plasma",13.6 ± 1.2 nM
same,"Log Doct,7.4",[8],4.90 ± 0.15
same,"Log Doct,7.4",[8]; evaluated in a previous paper,4.90
same,kinetic solubility,[9]; PBS buffer pH 7.4,18.3 ± 2.4 µg/mL
same,kinetic solubility,[9]; previously measured,18 µg/mL
same,percentage recovered in mouse plasma,[10],98.3 ± 9.5%
same,plasma protein binding (%bound),[11],98%
"C[C@H](CCC(=O)N[C@H](CC(=O)O)Cc1c[nH]c2ccccc12)[C@H]1CC[C@H]2[C@@H]3CCC4CC(=NO)CC[C@]4(C)[C@H]3CC[C@]12C (stereo partly drawn) [UniPR500, N-(3-hydroxyimino-cholan-24-oyl)-L-β-homotryptophan]",concentration at which saturation binding is reached,EphA2-Fc,around 25 μM
same,"in vitro half-life (t1/2), phase I metabolism","[2]; MLM, 1 μM",60 min
same,half-life at 1 µM,"[2]; mouse, liver microsomes, 1 μM",60.4 min
same,"percentage of intact compound at t = 60 min, glucuronidation",[3],79.5 ± 2.9%
same,"percentage remaining at t = 60 min, sulfonation",[4],81.0 ± 4.0%
same,half-life at 1 µM,[5],58.6 ± 6.1 min
same,fold increase of AUC (0–6 h) with respect to UniPR129,[6],43 fold
same,Tmax,[6]; [13],30 min
same,Cmax,"[6]; male, C57BL/6J, mouse, plasma, po, mean ± S.E.M., n = 4, read-out: maximal plasma concentration (Cmax)",609 ± 102 nM
same,concentration at 1 h,"[6]; male, C57BL/6J, mouse, plasma, po, mean ± S.E.M., read-out: plasma concentration at 1 h post-dose",344 ± 29 nM
same,concentration at 6 h,"[6]; male, C57BL/6J, mouse, plasma, po, mean ± S.E.M., read-out: plasma concentration at 6 h post-dose",237 ± 24 nM
same,AUC(0-t),[6]; [13],1.75 µM·h
same,"decrease of Log Doct,7.4 with respect to UniPR129",[12],approximately 0.7 log unit
same,"Log Doct,7.4",[8]; evaluated in a previous paper,4.23 ± 0.11 and 4.23
same,kinetic solubility,[9]; previously measured,30.6 ± 2.6 µg/mL and 30 µg/mL
